Where two headings read alike, the source gives them in different places.
Columns and labels:
[1] = Biodistribution, CHO-K1-GRPR + CHO-K1-PSMA dual xenograft mice; details: female, NOD SCID, mouse, intravenous, total radioactivity; for tissue uptake at 24.2 h / tissue uptake at 25.2 h: single tracer; for tissue uptake at 24.2 h / tissue uptake at 25.8 h / tissue uptake at 25.2 h / tissue uptake at 17.6 h: dual xenograft; for tissue uptake at 24.2 h: 24.2 h p.i.; for tissue uptake at 25.8 h: 1 nmol, Mouse #8, 25.8 h p.i., 1.00 nmol; for tissue uptake at 25.8 h / tissue uptake at 17.6 h: dual tracer; for tissue uptake at 25.2 h: 1.08 nmol, Mouse #6, 25.2 h p.i.; for tissue uptake at 17.6 h: 2.69 nmol, Mouse #9, 17.6 h p.i.; for tissue uptake: CHO-K1-GRPR xenograft tumor, Uptake in CHO-K1-GRPR xenografts, range
Description: Six-to-eight-week-old female immunodeficient mice (NOD SCID) were obtained from the Core facility laboratory animal breeding and husbandry of the Medical University of Vienna, Himberg, Austria. Animals were kept in individually ventilated cages with 12 h light–dark cycle. All experiments were approved by the Federal Ministry of Education, Science and Research, Republic of Austria (2020-0.253.820 and BMBWF-66.009/0122-V/3b/2019) and performed according to the guidelines from the Federation of the European Laboratory Animal Science Associations (FELASA). After an acclimatization period of two weeks, animals were injected with 3 × 10^6 CHO-K1-GRPR cells in the right flank and 3 × 10^6 CHO-K1-PSMA cells in the left flank (3 × 10^6 in 100 µL serum-free medium each). It should be noted that approximately the same passage (±1 passage number) was used for inoculation for both cell lines to ensure similar cell viability, target incidence, and density in vivo. Tracer uptake (and thus target expression) was confirmed three days prior to inoculation in cell uptake experiments. […] Tumor growth and body weight were monitored daily. Animals were subjected to imaging after 1.5–2 weeks of tumor growth (final tumor volume of 100–800 mm^3). Endpoints were defined as rapid weight loss up to 20% body weight, tumor volume ≥ 1000 mm^3, tumor volume < 1000 mm^3 with signs of necrosis (ulcerated surface), as well as clearly detectable apathy and pain upon touch.
Animals used in imaging studies were sacrificed at different time points post injectionem (p.i.) after the last imaging time point by cervical dislocation under isofluorane anesthesia. Selected organs were removed and weighed, and organ activities were measured in a γ-counter. For animals in which a dual-tracer cocktail was administered, the organs were measured several times over a period of 2–3 weeks to use these datasets in specific calculation methods (Section 3.6 in the SI) to obtain the correct activity for each individual radionuclide at the start of the measurement series.
[99mTc]Tc-PSMA-I&S or both (dual tracer cocktail) were injected into the tail vein of tumor
xenograft-bearing female NOD SCID mice. They were sacrificed by cervical dislocation under
isofluoran anesthesia at different time points post injectionem (p.i.) after the last imaging time
point. Selected organs were removed, weighed and organ activities measured in a γ-counter.

[2] = tested on: PC-3 xenografts; set-up: method as in Mansi et al. [37]; details: 24 h p.i.; female nude mice; i.v. 10 pmol; n = 4; ref Mansi et al. [37]; cited from earlier work
[3] = tested on: PC-3 xenograft; assay: Biodistribution, PC-3 xenograft mice; assay type: in vivo, NOD SCID mice; details: single tracer, PC-3 xenograft
Description: (§1) Tumor growth and body weight were monitored daily. […]
(§2) 3.6.1 Biodistribution studies
(§3) xenograft-bearing female NOD SCID mice. […]

[4] = Biodistribution, PC-3 xenograft mice; assay type: in vivo, NOD SCID mice; details: female, NOD SCID, intravenous, total radioactivity; for tissue uptake at 7.3 h: Mouse #2, 7.3 h p.i., 1.43 nmol; for tissue uptake at 7.3 h / tissue uptake at 4 h / tissue uptake at 25.1 h: single tracer, PC-3 xenograft; for tissue uptake at 4 h: Mouse #3, 4 h p.i., 1.49 nmol; for tissue uptake at 25.1 h: Mouse #1, 25.1 h p.i., 1.34 nmol
Description: as §1, §2, §3

[5] = CHO-K1-GRPR tumor, Biodistribution: CHO-K1-GRPR Tumor
[6] = CHO-K1-PSMA tumor, Biodistribution: CHO-K1-PSMA Tumor
[7] = adrenal, Biodistribution: Adrenal
[8] = kidney, Biodistribution: Kidney
[9] = muscle, Biodistribution: Muscle
[10] = pancreas, Biodistribution: Pancreas
[11] = spleen, Biodistribution: Spleen
[12] = stomach (empty), Biodistribution: Stomach (empty)
[13] = Mouse #1, 25.1 h p.i., 1.34 nmol
[14] = PC-3 tumor, read-out: Biodistribution: PC-3 Tumor
[15] = bone, read-out: Biodistribution: Bone
[16] = colon (empty), read-out: Biodistribution: Colon (empty)
[17] = intestine (empty), read-out: Biodistribution: Intestine (empty)
[18] = liver, read-out: Biodistribution: Liver
[19] = muscle, read-out: Biodistribution: Muscle
[20] = spleen, read-out: Biodistribution: Spleen
[21] = stomach (empty), read-out: Biodistribution: Stomach (empty)

## CC(C)C[C@H](NC(=O)C[C@H](O)[C@H](CC(C)C)NC(=O)[C@H](Cc1c[nH]cn1)NC(=O)CNC(=O)[C@@H](NC(=O)[C@H](C)NC(=O)[C@H](Cc1c[nH]c2ccccc12)NC(=O)[C@H](CCC(N)=O)NC(=O)[C@@H](Cc1ccccc1)NC(=O)CN1CCC(NC(=O)CN2CCN(CC(=O)O)CCN(CC(=O)O)CCN(CC(=O)O)CC2)CC1)C(C)C)C(N)=O [[^111In]In-RM2, metal not drawn]
[1]; CHO-K1-GRPR tumor, 0.37 nmol, Biodistribution: CHO-K1-GRPR Tumor, Mouse #5, 0.37 nmol
  tissue uptake at 24.2 h: 0.51 %ID/g
[1]; CHO-K1-GRPR tumor, 0.58 nmol, Biodistribution: CHO-K1-GRPR Tumor, Mouse #4, 0.58 nmol
  tissue uptake at 24.2 h: 0.28 %ID/g
[1]; [5]
  tissue uptake at 25.8 h: 0.38 %ID/g
  tissue uptake at 25.2 h: 0.33 %ID/g
  tissue uptake at 17.6 h: 0.26 %ID/g
[1]; CHO-K1-GRPR tumor, 1.41 nmol, Biodistribution: CHO-K1-GRPR Tumor, Mouse #7, 1.41 nmol
  tissue uptake at 24.2 h: 0.06 %ID/g
[1]; dual-tracer mice #8 and #9
  tissue uptake: 0.26 to 0.38 %ID/g
[1]; single-tracer mice #4–#7
  tissue uptake: 0.06 to 0.51 %ID/g
[1]; CHO-K1-PSMA tumor, 0.37 nmol, Biodistribution: CHO-K1-PSMA Tumor, Mouse #5, 0.37 nmol
  tissue uptake at 24.2 h: 0.08 %ID/g
[1]; [6]
  tissue uptake at 25.8 h: 0.08 %ID/g
  tissue uptake at 25.2 h: 0.09 %ID/g
  tissue uptake at 17.6 h: 0.09 %ID/g
[1]; CHO-K1-PSMA tumor, 1.41 nmol, Biodistribution: CHO-K1-PSMA Tumor, Mouse #7, 1.41 nmol
  tissue uptake at 24.2 h: 0.08 %ID/g
[1]; adrenal, 0.37 nmol, Biodistribution: Adrenal, Mouse #5, 0.37 nmol
  tissue uptake at 24.2 h: 0.33 %ID/g
[1]; adrenal, 0.58 nmol, Biodistribution: Adrenal, Mouse #4, 0.58 nmol
  tissue uptake at 24.2 h: 0.12 %ID/g
[1]; [7]
  tissue uptake at 25.2 h: 0.16 %ID/g
  tissue uptake at 17.6 h: 0.12 %ID/g
[1]; adrenal, 1.41 nmol, Biodistribution: Adrenal, Mouse #7, 1.41 nmol
  tissue uptake at 24.2 h: 0.08 %ID/g
[1]; blood, Biodistribution: Blood
  tissue uptake at 25.8 h: 0.02 %ID/g
  tissue uptake at 25.2 h: 0.01 %ID/g
  tissue uptake at 17.6 h: 0.02 %ID/g
[1]; blood, 1.41 nmol, Biodistribution: Blood, Mouse #7, 1.41 nmol
  tissue uptake at 24.2 h: 0.01 %ID/g
[1]; bone, 0.37 nmol, Biodistribution: Bone, Mouse #5, 0.37 nmol
  tissue uptake at 24.2 h: 0.04 %ID/g
[1]; bone, 0.58 nmol, Biodistribution: Bone, Mouse #4, 0.58 nmol
  tissue uptake at 24.2 h: 0.04 %ID/g
[1]; bone, Biodistribution: Bone
  tissue uptake at 25.8 h: 0.06 %ID/g
  tissue uptake at 25.2 h: 0.06 %ID/g
[1]; bone, 1.41 nmol, Biodistribution: Bone, Mouse #7, 1.41 nmol
  tissue uptake at 24.2 h: 0.04 %ID/g
[1]; colon (empty), 0.37 nmol, Biodistribution: Colon (empty), Mouse #5, 0.37 nmol
  tissue uptake at 24.2 h: 0.08 %ID/g
[1]; colon (empty), 0.58 nmol, Biodistribution: Colon (empty), Mouse #4, 0.58 nmol
  tissue uptake at 24.2 h: 0.04 %ID/g
[1]; colon (empty), Biodistribution: Colon (empty)
  tissue uptake at 25.8 h: 0.04 %ID/g
[1]; heart, 0.58 nmol, Biodistribution: Heart, Mouse #4, 0.58 nmol
  tissue uptake at 24.2 h: 0.02 %ID/g
[1]; heart, 1.41 nmol, Biodistribution: Heart, Mouse #7, 1.41 nmol
  tissue uptake at 24.2 h: 0.02 %ID/g
[1]; intestine (empty), 0.37 nmol, Biodistribution: Intestine (empty), Mouse #5, 0.37 nmol
  tissue uptake at 24.2 h: 0.06 %ID/g
[1]; intestine (empty), 1.41 nmol, Biodistribution: Intestine (empty), Mouse #7, 1.41 nmol
  tissue uptake at 24.2 h: 0.04 %ID/g
[1]; intestine (empty), Biodistribution: Intestine (empty)
  tissue uptake at 17.6 h: 0.04 %ID/g
[1]; kidney, 0.37 nmol, Biodistribution: Kidney, Mouse #5, 0.37 nmol
  tissue uptake at 24.2 h: 1.42 %ID/g
[1]; kidney, 0.58 nmol, Biodistribution: Kidney, Mouse #4, 0.58 nmol
  tissue uptake at 24.2 h: 1.14 %ID/g
[1]; [8]
  tissue uptake at 25.8 h: 1.07 %ID/g
  tissue uptake at 25.2 h: 1.69 %ID/g
  tissue uptake at 17.6 h: 1.09 %ID/g
[1]; kidney, 1.41 nmol, Biodistribution: Kidney, Mouse #7, 1.41 nmol
  tissue uptake at 24.2 h: 1.34 %ID/g
[1]; liver, 0.37 nmol, Biodistribution: Liver, Mouse #5, 0.37 nmol
  tissue uptake at 24.2 h: 0.13 %ID/g
[1]; liver, 0.58 nmol, Biodistribution: Liver, Mouse #4, 0.58 nmol
  tissue uptake at 24.2 h: 0.1 %ID/g
[1]; liver, Biodistribution: Liver
  tissue uptake at 25.8 h: 0.28 %ID/g
  tissue uptake at 25.2 h: 0.2 %ID/g
  tissue uptake at 17.6 h: 0.13 %ID/g
[1]; liver, 1.41 nmol, Biodistribution: Liver, Mouse #7, 1.41 nmol
  tissue uptake at 24.2 h: 0.17 %ID/g
[1]; lung, Biodistribution: Lung
  tissue uptake at 25.8 h: 0.04 %ID/g
[1]; lung, 1.41 nmol, Biodistribution: Lung, Mouse #7, 1.41 nmol
  tissue uptake at 24.2 h: 0.04 %ID/g
[1]; muscle, 0.37 nmol, Biodistribution: Muscle, Mouse #5, 0.37 nmol
  tissue uptake at 24.2 h: 0.01 %ID/g
[1]; muscle, 0.58 nmol, Biodistribution: Muscle, Mouse #4, 0.58 nmol
  tissue uptake at 24.2 h: 0.01 %ID/g
[1]; [9]
  tissue uptake at 25.8 h: 0.01 %ID/g
  tissue uptake at 25.2 h: 0.02 %ID/g
  tissue uptake at 17.6 h: 0.01 %ID/g
[1]; muscle, 1.41 nmol, Biodistribution: Muscle, Mouse #7, 1.41 nmol
  tissue uptake at 24.2 h: 0.01 %ID/g
[1]; pancreas, 0.37 nmol, Biodistribution: Pancreas, Mouse #5, 0.37 nmol
  tissue uptake at 24.2 h: 0.1 %ID/g
[1]; pancreas, 0.58 nmol, Biodistribution: Pancreas, Mouse #4, 0.58 nmol
  tissue uptake at 24.2 h: 0.07 %ID/g
[1]; [10]
  tissue uptake at 25.8 h: 0.07 %ID/g
  tissue uptake at 25.2 h: 0.06 %ID/g
  tissue uptake at 17.6 h: 0.04 %ID/g
[1]; pancreas, 1.41 nmol, Biodistribution: Pancreas, Mouse #7, 1.41 nmol
  tissue uptake at 24.2 h: 0.04 %ID/g
[1]; spleen, 0.37 nmol, Biodistribution: Spleen, Mouse #5, 0.37 nmol
  tissue uptake at 24.2 h: 0.08 %ID/g
[1]; spleen, 0.58 nmol, Biodistribution: Spleen, Mouse #4, 0.58 nmol
  tissue uptake at 24.2 h: 0.07 %ID/g
[1]; [11]
  tissue uptake at 25.8 h: 0.25 %ID/g
  tissue uptake at 25.2 h: 0.13 %ID/g
  tissue uptake at 17.6 h: 0.1 %ID/g
[1]; spleen, 1.41 nmol, Biodistribution: Spleen, Mouse #7, 1.41 nmol
  tissue uptake at 24.2 h: 0.08 %ID/g
[1]; stomach (empty), 0.37 nmol, Biodistribution: Stomach (empty), Mouse #5, 0.37 nmol
  tissue uptake at 24.2 h: 0.04 %ID/g
[1]; [12]
  tissue uptake at 25.8 h: 0.04 %ID/g
  tissue uptake at 25.2 h: 0.04 %ID/g
[2]
  Uptake in PC-3 xenografts: 6.84 ± 1.02 % ID/g
[3]; [13]
  Biodistribution: Kidney: 2.17 % ID/g
  Biodistribution: PC-3 Tumor: 2.20 % ID/g
[3]; Mouse #3, 4 h p.i., 1.49 nmol
  Biodistribution: Heart: 0.02 % ID/g
  Biodistribution: Kidney: 2.20 % ID/g
[4]; [14]
  tissue uptake at 7.3 h: 1.36 %ID/g
  tissue uptake at 4 h: 2.75 %ID/g
[4]; adrenal, read-out: Biodistribution: Adrenal
  tissue uptake at 4 h: 0.13 %ID/g
[4]; [15]
  tissue uptake at 25.1 h: 0.07 %ID/g
  tissue uptake at 4 h: 0.04 %ID/g
[4]; [16]
  tissue uptake at 25.1 h: 0.04 %ID/g
  tissue uptake at 7.3 h: 0.04 %ID/g
[4]; heart, read-out: Biodistribution: Heart
  tissue uptake at 7.3 h: 0.02 %ID/g
[4]; [17]
  tissue uptake at 25.1 h: 0.08 %ID/g
  tissue uptake at 4 h: 0.08 %ID/g
[4]; kidney, read-out: Biodistribution: Kidney
  tissue uptake at 7.3 h: 1.29 %ID/g
[4]; [18]
  tissue uptake at 25.1 h: 0.17 %ID/g
  tissue uptake at 7.3 h: 0.12 %ID/g
  tissue uptake at 4 h: 0.22 %ID/g
[4]; mouse, PC-3 xenograft tumor, 4-25.1 h p.i., range over mice, read-out: Uptake in PC-3 xenografts
  tissue uptake: 1.36 to 2.75 %ID/g
[4]; [19]
  tissue uptake at 25.1 h: 0.01 %ID/g
  tissue uptake at 7.3 h: 0.01 %ID/g
  tissue uptake at 4 h: 0.01 %ID/g
[4]; pancreas, read-out: Biodistribution: Pancreas
  tissue uptake at 25.1 h: 0.06 %ID/g
[4]; [20]
  tissue uptake at 25.1 h: 0.16 %ID/g
  tissue uptake at 7.3 h: 0.13 %ID/g
  tissue uptake at 4 h: 0.1 %ID/g
[4]; [21]
  tissue uptake at 7.3 h: 0.02 %ID/g
  tissue uptake at 4 h: 0.09 %ID/g

From publication PMC12298007 (Pharmaceuticals, 2025)
